From ChEMBL document CHEMBL1201862, “PubChem BioAssay data set” (2004)
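The compound was tested at five concentrations on cells cultured in 96-well plates, with a 48-hour exposure period. GI50 is the concentration that inhibits growth by half.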 Activity calls are given as the source filed them. Rule as the data show it: active = GI50 up to about 1.1 µM and inactive = higher.

Experiments:
Assay in all cases: inhibition of tumour cell growth, NCI panel, 48 h
KM12 = system: KM12
NCI-H522 = system: NCI-H522
MOLT-4 = system: MOLT-4
U-251 = system: U-251
SK-OV-3 = system: SK-OV-3
EKVX = system: EKVX
LXFL 529 = system: LXFL 529
KM-20L2 = system: KM-20L2
HT-29 = system: HT-29
SR = system: SR
IGROV-1 = system: IGROV-1
CCRF-CEM = system: CCRF-CEM
NCI-H23 = system: NCI-H23
RXF 393 = system: RXF 393
NCI-H460 = system: NCI-H460
NCI-H226 = system: NCI-H226
COLO 205 = system: COLO 205
DLD-1 = system: DLD-1
Malme-3M = system: Malme-3M
SK-MEL-2 = system: SK-MEL-2
HL-60 = system: HL-60
DMS-273 = system: DMS-273
SK-MEL-5 = system: SK-MEL-5
SNB-19 = system: SNB-19
SN12C = system: SN12C
786-0 = system: 786-0
SF-295 = system: SF-295
SNB-78 = system: SNB-78
SK-MEL-28 = system: SK-MEL-28
ACHN = system: ACHN
HOP-62 = system: HOP-62
M19-MEL = system: M19-MEL
HCT-15 = system: HCT-15
SF-539 = system: SF-539
SW-620 = system: SW-620
OVCAR-4 = system: OVCAR-4
HCC 2998 = system: HCC 2998
UACC-257 = system: UACC-257
OVCAR-8 = system: OVCAR-8
UO-31 = system: UO-31
M14 = system: M14
K562 = system: K562
XF498 = system: XF498
SF-268 = system: SF-268
A549 = system: A549
HCT-116 = system: HCT-116
SNB-75 = system: SNB-75
UACC-62 = system: UACC-62
OVCAR-3 = system: OVCAR-3
TK-10 = system: TK-10
LOX IMVI = system: LOX IMVI
RPMI-8226 = system: RPMI-8226
OVCAR-5 = system: OVCAR-5
HOP-92 = system: HOP-92

## CC(=O)NC1=C(NCc2ccc(Cl)cc2)C(=O)c2ccccc2C1=O
KM12
  GI50: 8.17 µM (inactive)
NCI-H522
  GI50: 0.986 µM (active)
MOLT-4
  GI50: 2.38 µM (inactive)
U-251
  GI50: 6.7 µM (inactive)
SK-OV-3
  GI50: 18.2 µM (inactive)
EKVX
  GI50: 7.62 µM (inactive)
LXFL 529
  GI50: 6.55 µM (inactive)
KM-20L2
  GI50: 24.3 µM (inactive)
HT-29
  GI50: 17.8 µM (inactive)
SR
  GI50: 8 µM (inactive)
IGROV-1
  GI50: 11.3 µM (inactive)
CCRF-CEM
  GI50: 8.53 µM (inactive)
NCI-H23
  GI50: 6.76 µM (inactive)
RXF 393
  GI50: 4.24 µM (inactive)
NCI-H460
  GI50: 10.8 µM (inactive)
NCI-H226
  GI50: 9.59 µM (inactive)
COLO 205
  GI50: 5.4 µM (inactive)
DLD-1
  GI50: 6.76 µM (inactive)
Malme-3M
  GI50: 9.4 µM (inactive)
SK-MEL-2
  GI50: 5.62 µM (inactive)
HL-60
  GI50: 1.39 µM (inactive)
DMS-273
  GI50: 7.67 µM (inactive)
SK-MEL-5
  GI50: 5.46 µM (inactive)
SNB-19
  GI50: 22.6 µM (inactive)
SN12C
  GI50: 13.9 µM (inactive)
786-0
  GI50: 8.77 µM (inactive)
SF-295
  GI50: 13.3 µM (inactive)
SNB-78
  GI50: 11 µM (inactive)
SK-MEL-28
  GI50: 5.5 µM (inactive)
ACHN
  GI50: 1.84 µM (inactive)
HOP-62
  GI50: 12.5 µM (inactive)
M19-MEL
  GI50: 5.27 µM (inactive)
HCT-15
  GI50: 5.57 µM
SF-539
  GI50: 4.41 µM (inactive)
SW-620
  GI50: 7 µM (inactive)
OVCAR-4
  GI50: 6.85 µM (inactive)
HCC 2998
  GI50: 27.5 µM (inactive)
UACC-257
  GI50: 6.17 µM (inactive)
OVCAR-8
  GI50: 7.45 µM (inactive)
UO-31
  GI50: 5.15 µM (inactive)
M14
  GI50: 7.01 µM (inactive)
K562
  GI50: 2.46 µM (inactive)
XF498
  GI50: 1.44 µM (inactive)
SF-268
  GI50: 16.5 µM (inactive)
A549
  GI50: 12.5 µM (inactive)
HCT-116
  GI50: 3.12 µM (inactive)
SNB-75
  GI50: 7.08 µM (inactive)
UACC-62
  GI50: 2.61 µM (inactive)
OVCAR-3
  GI50: 6.4 µM (inactive)
TK-10
  GI50: 8.24 µM (inactive)
LOX IMVI
  GI50: 8.2 µM (inactive)

## COc1ccc(/C=N/n2cnc3c(sc(=S)n3-c3ccccc3)c2=O)cc1
KM12
  GI50: > 100 µM (inactive)
NCI-H522
  GI50: 13.5 µM (inactive)
MOLT-4
  GI50: 20.4 µM (inactive)
U-251
  GI50: 23.2 µM (inactive)
SK-OV-3
  GI50: 13.2 µM (inactive)
LXFL 529
  GI50: 16.9 µM (inactive)
HT-29
  GI50: 24.5 µM (inactive)
SR
  GI50: 29.2 µM (inactive)
IGROV-1
  GI50: 37 µM (inactive)
CCRF-CEM
  GI50: 18.3 µM (inactive)
NCI-H23
  GI50: 23.6 µM (inactive)
NCI-H460
  GI50: 35.8 µM (inactive)
NCI-H226
  GI50: 18.3 µM (inactive)
COLO 205
  GI50: 50.8 µM (inactive)
DLD-1
  GI50: 26.8 µM (inactive)
RPMI-8226
  GI50: 16.4 µM (inactive)
HL-60
  GI50: 12.5 µM (inactive)
SK-MEL-5
  GI50: 24.7 µM (inactive)
SNB-19
  GI50: 17.7 µM (inactive)
OVCAR-5
  GI50: 1.68 µM (inactive)
SF-295
  GI50: 10 µM (inactive)
SK-MEL-28
  GI50: 13.2 µM (inactive)
ACHN
  GI50: 27.6 µM (inactive)
HOP-62
  GI50: 12.2 µM (inactive)
M19-MEL
  GI50: 33.2 µM (inactive)
HOP-92
  GI50: 4.43 µM (inactive)
SF-539
  GI50: 12.8 µM (inactive)
SW-620
  GI50: 99.3 µM (inactive)
HCC 2998
  GI50: 23.9 µM (inactive)
UACC-257
  GI50: 23.6 µM (inactive)
OVCAR-8
  GI50: 26.5 µM (inactive)
UO-31
  GI50: 40.4 µM (inactive)
K562
  GI50: 15.8 µM (inactive)
SF-268
  GI50: 6.28 µM (inactive)
A549
  GI50: 45.5 µM (inactive)
HCT-116
  GI50: > 100 µM (inactive)
SNB-75
  GI50: 2.47 µM (inactive)
UACC-62
  GI50: 16.7 µM (inactive)
OVCAR-3
  GI50: 14.9 µM (inactive)
TK-10
  GI50: 25.3 µM (inactive)
